Square brackets hold non-standard residues; d marks the D form. Peptide text beside a SMILES is read from it. * marks the point of attachment. ξ: configuration not given here. ξF = NC(Cc1ccccc1)C(=O)O; Cbz = O=C(OCc1ccccc1)*
Legend:
[1] = Antiviral activity against pseudovirus SARS-CoV spike protein infected in HeLa cells over expressing ACE2 assessed as inhibition on pseudovirus infection incubated for 52 hrs by luminescence based microplate reader analysis; format: functional, cell-based
Ebolavirus = test: microbe, parasite or virus in culture; format: functional, organism-based; settings: Orthoebolavirus
[2] = target: T1, Angiotensin-converting enzyme 2 (Homo sapiens, UniProt Q9BYF1); test: Binding affinity to ACE2 (unknown origin) at 10 uM assessed as inhibition constant
Human coronavirus 229E [3] = test: Antiviral activity against HCoV-229E assessed as reduction of viral RNA level at 4 uM; format: functional, organism-based
HeLa = test: Antiproliferative activity against human HeLa cells assessed as reduction in cell growth inhibition; format: functional, cell-based
[4] = Cytotoxicity against African green monkey Vero cells by MTT assay; format: toxicity, cell-based; settings: chlorocebus sabaeus
SARS-CoV-2 = test: Antiviral activity against SARS-COV2 infected in African green monkey Vero B cells incubated for 48 hrs by ELISA; format: functional, organism-based; settings: Severe acute respiratory syndrome coronavirus 2, Vero B
[5] = target: T1, Angiotensin-converting enzyme 2; test: Inhibition of human recombinant ACE2 at 50 uM using (7Mca-Y-V-A- D -A-P- K(Knp) as a flurogenic substrate measured after 10 mins by fluorescence based analysis
[6] = Cytotoxicity against african green monkey Vero cells incubated for 3 days; format: toxicity, cell-based; settings: chlorocebus sabaeus, time 3 day
Procathepsin L = Procathepsin L (Homo sapiens, UniProt P07711); test: Inhibition of human recombinant Cathepsin L […] using Z-FR-AMC as substrate incubated for 30 mins by fluorometric assay
[7] = target: T1, Angiotensin-converting enzyme 2; test: Inhibition of SARS-CoV S binding to human recombinant ACE2 expressed in Escherichia coli BL21(DE3) incubated for 2 hrs by ELISA method
Mus musculus = test: Antiviral activity against MERS-COV infected in BALB/c mouse at 5 mg/kg; format: functional, organism-based
[8] = Inhibition of MERS-CoV Main protease; parameters: species or system Middle East respiratory syndrome-related coronavirus
[9] = Antiviral activity against HCoV-NL63 assessed as viral growth inhibition; format: functional, Human coronavirus NL63
Human coronavirus OC43 = test: Antiviral activity against HCoV-OC43 assessed as viral growth inhibition; format: functional, organism-based; settings: Betacoronavirus 1
Human coronavirus 229E [10] = test: Antiviral activity against HCoV-229E; format: functional, organism-based
[11] = Inhibition of MERS-CoV S protein RBD (E367 to Y606 residues) expressed in Fc portion of the human IgG1 in CHO cells by chromatography method; parameters: species or system Middle East respiratory syndrome-related coronavirus

T1 sequence (Q9BYF1 whole entry): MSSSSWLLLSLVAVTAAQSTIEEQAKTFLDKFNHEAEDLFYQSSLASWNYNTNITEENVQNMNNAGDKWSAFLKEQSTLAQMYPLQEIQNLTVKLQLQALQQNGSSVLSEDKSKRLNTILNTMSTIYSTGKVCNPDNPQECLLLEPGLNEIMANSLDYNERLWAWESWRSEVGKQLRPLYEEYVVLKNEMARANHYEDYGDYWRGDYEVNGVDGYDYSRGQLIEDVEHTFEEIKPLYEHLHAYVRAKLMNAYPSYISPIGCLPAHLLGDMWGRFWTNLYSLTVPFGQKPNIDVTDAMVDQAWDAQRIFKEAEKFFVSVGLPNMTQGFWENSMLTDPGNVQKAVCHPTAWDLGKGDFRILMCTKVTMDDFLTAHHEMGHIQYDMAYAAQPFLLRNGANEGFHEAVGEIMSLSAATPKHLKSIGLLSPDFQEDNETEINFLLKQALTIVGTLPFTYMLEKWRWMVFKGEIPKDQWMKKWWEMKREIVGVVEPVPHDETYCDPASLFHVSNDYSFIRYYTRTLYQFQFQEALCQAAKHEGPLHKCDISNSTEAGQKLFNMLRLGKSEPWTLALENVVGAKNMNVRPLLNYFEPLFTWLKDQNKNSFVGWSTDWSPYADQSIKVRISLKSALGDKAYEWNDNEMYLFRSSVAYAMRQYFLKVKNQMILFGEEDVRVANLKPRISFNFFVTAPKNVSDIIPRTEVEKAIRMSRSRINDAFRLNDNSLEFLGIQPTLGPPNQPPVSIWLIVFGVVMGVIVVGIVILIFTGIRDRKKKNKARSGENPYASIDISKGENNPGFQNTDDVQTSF
Sequence of Procathepsin L (P07711 whole entry): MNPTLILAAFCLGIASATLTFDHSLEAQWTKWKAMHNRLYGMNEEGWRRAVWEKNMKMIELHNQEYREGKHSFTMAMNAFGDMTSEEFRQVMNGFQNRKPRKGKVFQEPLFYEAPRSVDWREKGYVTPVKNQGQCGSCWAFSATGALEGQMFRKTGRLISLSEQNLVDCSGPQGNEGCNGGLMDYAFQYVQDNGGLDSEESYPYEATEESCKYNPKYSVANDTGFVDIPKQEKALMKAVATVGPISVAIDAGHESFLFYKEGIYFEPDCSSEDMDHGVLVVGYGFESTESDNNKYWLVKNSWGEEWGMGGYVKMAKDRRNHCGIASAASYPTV

CC(C)(C)OC(=O)N[C@@H](Cc1c[nH]c2ccccc12)C(=O)NNC(=O)OCC(=O)N1CCCc2ccccc21
EC50 [1]: 273 nM | EC50 (Ebolavirus): 193 nM

NCCNCCN1CC1
Ki [2]: 459000 nM

CN1CCN(CCOc2cc(OC3CCOCC3)c3c(Nc4c(Cl)ccc5c4OCO5)ncnc3c2)CC1 [SARACATINIB]
IC50 (Human coronavirus 229E [3]): 5100 nM | IC50 (HeLa): 2400 nM | CC50 [4]: > 50000 nM

CCN(CC)CCCC(C)Nc1ccnc2cc(Cl)ccc12 (configuration not stated) [CHLOROQUINE]
IC50 (SARS-CoV-2): 1130 nM | IC50 [5]: 1130 nM | CC50 at 72 h [6]: > 100000 nM

CC(C)CC(CC(=O)NO)C(=O)NC(Cc1ccc2ccccc2c1)C(=O)NC(C)C(N)=O (configuration not stated)
IC50 [5]: 100 nM

CCN(CCO)CCCC(C)Nc1ccnc2cc(Cl)ccc12 (configuration not stated) [HYDROXYCHLOROQUINE]
IC50 [5]: 720 nM

CN(C)C(=O)COC(=O)Cc1ccc(OC(=O)c2ccc(NC(=N)N)cc2)cc1 [CAMOSTAT]
IC50 (Procathepsin L): 10000 nM

CC[C@H](C)[C@@H](NC(=O)[C@H]1CCCN1C(=O)[C@H](CCC(N)=O)NC(=O)[C@H](Cc1ccc(O)cc1)NC(=O)CNC(=O)[C@H](CCCCN)NC(=O)[C@H](Cc1ccc(O)cc1)NC(=O)[C@@H](NC(=O)[C@H](Cc1ccc(O)cc1)NC(=O)[C@H](CC(C)C)NC(=O)[C@H](Cc1ccccc1)NC(=O)CN)C(C)C)C(=O)O
IC50 [7]: 4.3 nM

CC(C)CC(NC(Cc1cncn1Cc1cc(Cl)cc(Cl)c1)C(=O)O)C(=O)O (configuration not stated)
IC50 [5]: 0.44 nM

CC[C@H](C)[C@H](NC(=O)CNC(=O)[C@@H](NC(=O)[C@@H](NC(=O)[C@@H](NC(=O)[C@H](Cc1ccc(O)cc1)NC(=O)[C@@H](N)Cc1ccccc1)[C@@H](C)O)[C@@H](C)O)[C@@H](C)O)C(=O)NCC(=O)N[C@@H](Cc1ccc(O)cc1)C(=O)N[C@@H](CCC(N)=O)C(=O)N1CCC[C@@H]1C(=O)N[C@H](Cc1ccc(O)cc1)C(=O)O
IC50 [7]: 6.99 nM

CC[C@H](C)[C@H](NC(=O)[C@H](C)NC(=O)[C@H](CCC(=O)O)NC(=O)[C@H](CCC(=O)O)NC(=O)[C@H](CC(C)C)NC(=O)[C@H](CCCCN)NC(=O)[C@H](CCCCN)NC(=O)[C@H](CCSC)NC(=O)[C@H](CCC(=O)O)NC(=O)[C@H](Cc1ccc(O)cc1)NC(=O)[C@H](CCC(=O)O)NC(=O)[C@H](CC(C)C)NC(=O)[C@H](CC(=O)O)NC(=O)[C@H](CC(C)C)NC(=O)[C@H](Cc1ccccc1)NC(=O)[C@@H](NC(=O)[C@@H](NC(=O)[C@H](CC(N)=O)NC(=O)[C@@H](NC(=O)[C@H](CCC(N)=O)NC(=O)[C@H](CC(=O)O)NC(=O)[C@H](CC(C)C)NC(=O)[C@@H](N)CO)[C@@H](C)CC)C(C)C)[C@@H](C)O)C(=O)N[C@@H](CCCCN)C(=O)N[C@@H](CCCCN)C(=O)N[C@@H](CC(C)C)C(=O)N[C@@H](CCC(=O)O)C(=O)N[C@@H](CCC(=O)O)C(=O)N[C@@H](CO)C(=O)N[C@@H](Cc1ccc(O)cc1)C(=O)N[C@H](C(=O)N[C@@H](CC(=O)O)C(=O)N[C@@H](CC(C)C)C(=O)N[C@@H](CCCCN)C(=O)N[C@@H](CCC(=O)O)C(=O)N[C@@H](CC(C)C)C(=O)O)[C@@H](C)CC
IC50 (Mus musculus): 2380 nM | IC50 [8]: 190 nM | IC50 [9]: 6020 nM | IC50 (Human coronavirus OC43): 1810 nM | IC50 (Human coronavirus 229E [10]): 3350 nM

CN1CCN(C(=O)N[C@@H](Cc2ccccc2)C(=O)N[C@H](/C=C/S(=O)(=O)c2ccccc2)CCc2ccccc2)CC1 [K-777]
IC50 [11]: 46.1 nM | IC50 [9]: 6.78 nM | IC50 (Human coronavirus 229E [10]): 1.48 nM | CC50 at 72 h [6]: > 10000 nM

C=C(N[C@@H](CCCN=C(N)N)C(=O)Cl)[C@@H](CCCCN)NC(=O)[C@H](NC(=O)[C@H](CCCN=C(N)N)NC(=O)CCCCCCCCCC)C(C)C
IC50 (Procathepsin L): 75000 nM

CC(C)[C@H](NC(=O)OCc1ccccc1)C(=O)NC(C=O)Cc1ccccc1 (stereo partly drawn) (Cbz-Val-[ξF]-aldehyde)
EC50 [1]: 100 nM

CC[C@H](C)[C@H](NC(=O)[C@H](CO)NC(=O)[C@H](CCCCN)NC(=O)[C@H](CCC(N)=O)NC(=O)[C@H](CO)NC(=O)[C@@H](NC(=O)[C@@H](N)CO)[C@@H](C)O)C(=O)N[C@H](C(=O)N[C@@H](C)C(=O)N[C@@H](Cc1ccc(O)cc1)C(=O)N[C@H](C(=O)N[C@@H](CCSC)C(=O)O)[C@@H](C)O)C(C)C
IC50 [7]: 1.88 nM

— ChEMBL document CHEMBL5230087, “Inhibitors of SARS-CoV-2 Entry: Current and Future Opportunities” (J Med Chem, 2020)
